{"source": "patent US20080213743A1", "about": "“Method for adjusting sedimentation rates” (priority 2007, published 2008)", "system": "bone marrow aspirate", "test": "Centrifugal fractionation of bone marrow aspirate with the whole-blood platelet rich plasma protocol; analysis of ten milliliter concentrate sample", "assay_type": "cell-based", "conditions": "60 mls bone marrow aspirate collected into heparin, 8-10 mls of ACD added or heparin alone, two centrifugations", "description": "In one specific example of the invention, 60 mls of bone marrow aspirate is collected into a bag or syringe having heparin as the anticoagulant. A bag is preferred to be able to inspect the collected marrow. Then, 8-10 mls of ACD are added to the collected aspirate to adjust the sedimentation rate of the components, particularly the red blood cells. The aspirate mixture is then placed in the first chamber of a two-chamber processing unit and subjected to centrifugation according to a known protocol designed to fractionate whole blood for the purpose of making platelet rich plasma as described in U.S. Pat. No. 6,398,972. The supernatant is then decanted to the second chamber and again subjected to centrifugation according to the said process designed to separate platelets to make platelet rich plasma. Supernatant from the second centrifugation is withdrawn to leave a ten milliliter concentrate sample remaining in the chamber. […] In contrast, when same process is followed with heparin alone, the sample is 3% Hct with a TNC of 32.4×10^3/μl."}
{"substance": "heparin", "values": [{"measurement": "Hct of concentrate sample", "result": 3, "unit": "% Hct"}, {"measurement": "total nucleated cell count (TNC) of concentrate sample", "result": 32400, "unit": "µL⁻¹"}]}
